Test results: PubChem BioAssay (NCI)
Values joined by “and” are separate entries in the source; they are usually repeats but may differ in a detail not shown here. Equal values may be shown once.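 Grown in 96-well plates, cells were treated for 48 hours with each compound at five concentrations. Insufficient inhibition: endpoint recorded as highest concentration tested. GI50: concentration for 50% inhibition of growth. TGI is the concentration that stops growth completely.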 Where a SMILES comes first, the peptide text is derived from it. [ ]: non-standard residue; d: D form. The star is where a group is joined. NMeF = CN[CH](Cc1ccccc1)C(=O)O; NMeV = CN[CH](C(=O)O)C(C)C; Boc = CC(C)(C)OC(=O)*; OBn = c1ccc(CO*)cc1

What was measured:
Assay in all cases: inhibition of tumour cell growth, NCI panel, 48 h; in the data active = GI50 below about 0.43 µM; inactive = the rest
[1] = test system: SR leukemia
[2] = test system: MOLT-4 leukemia
[3] = test system: SN12C renal
[4] = test system: SF-295 CNS
[5] = test system: SF-268 CNS
[6] = test system: SW-620 colon
[7] = test system: UACC-62 melanoma
[8] = test system: OVCAR-8 ovarian
[9] = test system: LXFL 529 NSCLC
[10] = test system: MALME-3M melanoma
[11] = test system: NCI-H522 lung
[12] = test system: DMS 114 small cell lung
[13] = test system: RPMI-8226 leukemia
[14] = test system: HCC-2998 colon
[15] = test system: SNB-19 CNS
[16] = test system: SK-MEL-28 melanoma
[17] = test system: M14 melanoma
[18] = test system: SK-MEL-5 melanoma
[19] = test system: NCI-H460 lung
[20] = test system: UO-31 renal
[21] = test system: EKVX NSCLC
[22] = test system: A549 NSCLC
[23] = test system: TK-10 renal
[24] = test system: IGROV1 ovarian
[25] = test system: M19-MEL melanoma
[26] = test system: KM12 colon
[27] = test system: NCI-H226 lung
[28] = test system: SF-539 CNS
[29] = test system: HCT-116 colon
[30] = test system: COLO 205 colon
[31] = test system: U251 CNS
[32] = test system: HL-60(TB) leukemia
[33] = test system: UACC-257 melanoma
[34] = test system: NCI-H23 lung
[35] = test system: LOX IMVI melanoma
[36] = test system: SK-OV-3 ovarian
[37] = test system: OVCAR-3 ovarian
[38] = test system: ACHN renal
[39] = test system: XF 498 CNS
[40] = test system: HT29 colon
[41] = test system: HCT-15 colon
[42] = test system: K-562 leukemia
[43] = test system: DMS 273 small cell lung
[44] = test system: CCRF-CEM leukemia
[45] = test system: HOP-62 NSCLC
[46] = test system: KM20L2 colon
[47] = test system: 786-0 renal
[48] = test system: OVCAR-5 ovarian
[49] = test system: SNB-75 CNS
[50] = test system: A498 renal
[51] = test system: RXF 393 renal
[52] = test system: DLD-1 colon
[53] = test system: HOP-18 NSCLC
[54] = test system: HOP-92 NSCLC
[55] = test system: OVCAR-4 ovarian
[56] = test system: SK-MEL-2 melanoma
[57] = test system: CAKI-1 renal
[58] = test system: SNB-78 CNS
[59] = test system: RXF-631 renal

CC(C)C(NC(=O)OC(C)(C)C)C(=O)N(C)C(Cc1ccccc1)C(=O)N(C)C(C(=O)OCc1ccccc1)C(C)C (stereo not drawn) (Boc-Val-[NMeF]-[NMeV]-OBn; configuration not given here)
9.63 µM and 74.8 µM: TGI [39]
39.6 µM and 44 µM: TGI [2]
29.7 µM and 69 µM: TGI [11]
44.6 µM: TGI [18]
35.7 µM and > 100 µM: TGI [35]
> 100 µM: TGI [3] | TGI [4] | TGI [5] | TGI [6] | TGI [7] | TGI [8] | TGI [9] | TGI [10] | TGI [12] | TGI [13] | TGI [14] | TGI [15] | TGI [16] | TGI [17] | TGI [19] | TGI [20] | TGI [21] | TGI [22] | TGI [23] | TGI [24] | TGI [25] | TGI [26] | TGI [27] | TGI [28] | TGI [29] | TGI [30] | TGI [31] | TGI [33] | TGI [34] | TGI [36] | TGI [37] | TGI [38] | TGI [41] | TGI [43] | TGI [44] | TGI [45] | TGI [46] | TGI [47]
inactive: GI50 [2] 5.92 µM and 14.8 µM | GI50 [3] 44.3 µM and > 100 µM | GI50 [9] 14.1 µM and 33.2 µM | GI50 [13] 10.8 µM and 25.3 µM | GI50 [15] > 100 µM and 32.8 µM | GI50 [25] 87.4 µM and 42.2 µM | GI50 [26] 38.2 µM and 82.9 µM | GI50 [28] 16.4 µM and 78.4 µM | GI50 [33] 20.5 µM and 44.3 µM | GI50 [35] 16.3 µM and 62.9 µM | GI50 [37] 35.5 µM and > 100 µM | GI50 [38] > 100 µM and 41 µM | GI50 [39] 3.54 µM and 28.6 µM | GI50 [42] 12.1 µM and 51.4 µM | GI50 [44] 17.8 µM and 39.1 µM | GI50 [46] > 100 µM and 49.3 µM
95.6 µM and > 100 µM: TGI [42]
> 100 µM and 53.9 µM: TGI [32]
> 100 µM and 96.2 µM: TGI [1]
32.3 µM and > 100 µM: TGI [40]

CCOC(=O)C1=C(OC(OCC)C([Se]c2ccccc2)C(C)C)CCC1 (stereo unspecified)
28.8 µM: TGI [18]
16.6 µM: TGI [31]
20.6 µM: TGI [47]
40 µM: TGI [37]
30.8 µM: TGI [28]
33.6 µM: TGI [7]
62.5 µM: TGI [49]
26.4 µM: TGI [39]
45.4 µM: TGI [2]
81.9 µM: TGI [10]
44.5 µM: TGI [4]
15.4 µM: TGI [1]
29.4 µM: TGI [41]
62 µM: TGI [38] | TGI [56]
6.93 µM: TGI [35]
11.2 µM: TGI [32]
51.1 µM: TGI [54]
22.3 µM: TGI [34]
39.4 µM: TGI [16]
63.3 µM: TGI [46]
27.8 µM: TGI [44]
31.7 µM: TGI [30]
59.4 µM: TGI [48]
> 100 µM: TGI [14] | TGI [15] | TGI [22] | TGI [23] | TGI [50] | TGI [26] | TGI [36] | TGI [42] | TGI [57] | TGI [45]
26 µM: TGI [29]
41.3 µM: TGI [53]
41.7 µM: TGI [40]
38.8 µM: TGI [58]
75.4 µM: TGI [33]
25.1 µM: TGI [3]
61 µM: TGI [20]
20.2 µM: TGI [11]
38.5 µM: TGI [13]
20 µM: TGI [5] | TGI [43]
37.4 µM: TGI [27]
46.7 µM: TGI [21]
33.8 µM: TGI [52]
29.5 µM: TGI [9]
31.4 µM: TGI [19]
52.4 µM: TGI [24]
43.6 µM: TGI [17]
32.9 µM: TGI [55]
27.4 µM: TGI [8]
34.9 µM: TGI [25]
21.9 µM: TGI [51]

Nc1nc(SCC(=O)c2ccccc2)c2[nH]cnc2n1
82.6 µM: TGI [49]
> 100 µM: TGI [48] | TGI [1] | TGI [2] | TGI [3] | TGI [4] | TGI [5] | TGI [6] | TGI [7] | TGI [8] | TGI [10] | TGI [11] | TGI [12] | TGI [13] | TGI [14] | TGI [15] | TGI [16] | TGI [17] | TGI [18] | TGI [19] | TGI [22] | TGI [23] | TGI [24] | TGI [50] | TGI [25] | TGI [52] | TGI [26] | TGI [27] | TGI [28] | TGI [29] | TGI [30] | TGI [31] | TGI [32] | TGI [33] | TGI [34] | TGI [35] | TGI [36] | TGI [37] | TGI [38] | TGI [39] | TGI [40] | TGI [41] | TGI [42] | TGI [53] | TGI [54] | TGI [55] | TGI [43] | TGI [44] | TGI [56] | TGI [57] | TGI [45] | TGI [46] | TGI [47]

O=C(NC1CC1)c1c(O)[nH]c(=S)[nH]c1=O
> 100 µM: TGI [48] | TGI [1] | TGI [2] | TGI [3] | TGI [4] | TGI [5] | TGI [6] | TGI [7] | TGI [8] | TGI [9] | TGI [10] | TGI [11] | TGI [12] | TGI [13] | TGI [49] | TGI [15] | TGI [16] | TGI [17] | TGI [18] | TGI [19] | TGI [20] | TGI [22] | TGI [23] | TGI [24] | TGI [50] | TGI [25] | TGI [52] | TGI [26] | TGI [27] | TGI [28] | TGI [29] | TGI [30] | TGI [31] | TGI [59] | TGI [32] | TGI [33] | TGI [34] | TGI [35] | TGI [36] | TGI [37] | TGI [38] | TGI [40] | TGI [41] | TGI [42] | TGI [53] | TGI [54] | TGI [55] | TGI [44] | TGI [56] | TGI [57] | TGI [45] | TGI [46] | TGI [58] | TGI [47]
